The values below are quoted from earlier work in patent US11234954B2, “Low-dose doxepin for treatment of sleep disorders in elderly patients” (Pernix Sleep, Inc., priority 2006, dated 2022).

The half-life is how long it takes for the measured level to halve.

For the series the following is noted: major active metabolite of doxepin; cited from earlier work.

Regarding `CNCC/C=C1\c2ccccc2COc2ccccc21` [desmethyldoxepin, Desmethyldoxepin], the half-life was 51 h.
